Measured values reported in patent US20030013898A1, “Pericyte protective agent” (Toray Industries, Inc., priority 1998, published 2003).

Columns and labels:
RAGE mRNA = RAGE mRNA in pericytes by quantitative reverse transcription-polymerase chain reaction; type: cell-based, bovine; conditions: 1 μM BPS treatment
Method: Pericytes were isolated from bovine retina and maintained in Dulbecco's modified Eagle medium containing 20% foetal calf serum. Next, the quantity of the AGE receptor RAGE mRNA present in the pericytes was analyzed by means of a quantitative reverse transcription-polymerase chain reaction method, in accordance with the technique described in Biochemical and Biophysical Research Communications, Vol. 213, 682-683, 1995.

[1] = test system: Pericytes isolated from bovine retina; experiment: Pericyte protecting action: suppression of pericyte proliferation attributable to AGE; type: cell-based; conditions: FIG. 1
Method: Pericytes were isolated from bovine retina and maintained in Dulbecco's modified Eagle medium containing 20% foetal calf serum. The suppression of pericyte proliferation attributable to AGE was measured by adding 0.25 mg of AGE-BSA (prepared in Reference Example 1) to a culture plate into which 3.0×10^4 cells had been plated, then culturing at 37° C. for 5 days and performing measurements using a Packard Cyto Life. Separately, Beraprost sodium (BPS) was added at a final concentration of 0.1-10 μM prior to AGE addition. As controls, measurements were carried out in the same way for the case when treatment was carried out with AGE-BSA only and for the case where no treatment was carried out. For each group, the tests were carried out 10 times respectively.

expression of RAGE (mRNA) (RAGE mRNA): expression of RAGE was suppressed
Compound: CC#CCC(C)[C@H](O)/C=C/[C@@H]1[C@H]2c3cccc(CCCC(=O)O)c3O[C@H]2C[C@H]1O (relative stereo) [BPS, (±)-(1R*,2R*,3aS*,8bS*)-2,3,3a,8b-tetrahydro-2-hydroxy-1-[(E)-(3S*)-3-hydroxy-4-methyl-1-octen-6-ynyl]-1H-cyclopenta[b]benzofuran-5-butyric acid]
improvement of AGE-induced suppression of pericyte proliferation ([1]; BPS 0.1-10 μM added prior to 0.25 mg AGE-BSA, 3.0×10^4 cells, 37° C., 5 days): improved in a concentration-dependent manner
concentration at which improvement of suppression of proliferation was significant ([1]; BPS added prior to AGE-BSA, 5 days culture): 1 µM
